# Data: patent US7855200B2, “Method for treatment of gastric ulcers and ulcers induced by aspirin” (Council of Scientific and Industrial Research, priority 2006, dated 2010)
# Several values for one entry are separate records, joined by “and”; a condition that tells them apart may be missing. Identical values can stand only once.
# What was measured:
# Format in all cases: in vivo, albino rats
# [1] = tested on: acetyl salicylic acid induced gastric lesions; test: Acetyl salicylic acid (aspirin) induced gastric ulcer; design: Ulcer index Mean(SE): scale not given here; conditions: rats, aspirin 200 mg/kg
# Method in brief: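 Rats in groups of 6 were dosed orally once a day for five days with test compounds suspended in 1% Tween 80. A 1% Tween 80 control group and a ranitidine 50 mg/kg group were included. Aspirin at 200 mg/kg was given orally 30 min after each dose. After a 24 hour fast, the rats were killed by cervical dislocation. Stomachs were opened along the greater curvature, rinsed with lukewarm saline, examined under a dissecting microscope and scored for ulcer index.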
# [2] = tested on: gastric ulceration in cold restraint rats; test: Cold restraint (stress) induced ulcers; design: Ulcer index Mean(SE): scale not given here; conditions: rats, 4° C. for 2 hours
# Method in brief: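 Albino rats, fasted 48 h with free water, dosed orally with compound at 25 mg/kg or at 50, 25, 15, 10 and 5 mg/kg in 1% Tween 80 vehicle. Water removed 1 h before restraint at 4° C for 2 h. Sacrificed 2 h after stress; stomachs opened along greater curvature and scored as mean ulcer index.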
# [3] = tested on: Pylorus ligated rats; test: Pylorus ligated ulcers; conditions: 4 hours after pylorus ligation
# Method in brief: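 Albino rats, fasted 48 h, dosed with test compound (25 mg/kg, or 50, 25, 15, 10 and 5 mg/kg) or ranitidine 50 mg/kg in 1% Tween 80 vehicle. Pylorus ligated under ether 1 h post-dose. Gastric contents collected 4 h later, centrifuged, and total acid titrated with 0.01N NaOH.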
# [4] = 5 mg/kg per orally daily for five days
# [5] = 10 mg/kg per orally daily for five days
# [6] = 15 mg/kg per orally daily for five days
# [7] = 25 mg/kg per orally daily for five days
# [8] = 50 mg/kg per orally daily for five days
smiles,measurement,setting,value
"COC(=O)C1OC(Oc2cc3oc(-c4ccccc4)cc(=O)c3cc2OC)C(O)C(O)C1O (stereo not drawn) [OA-5, 3,4,5-trihydroxy-6-(6-methoxy-4-oxo-2-phenyl-4-H-chromen-7-yoloxy) tetrahydro-pyran-2-carboxylicacid methyl ester]",Inhibition %,[1]; [4],18.75%
same,Ulcer index Mean(SE),[1]; [4],36.66
same,Inhibition %,[1]; [5],40.98%
same,Ulcer index Mean(SE),[1]; [5],26.66
same,Inhibition %,[1]; [6],40.98%
same,Ulcer index Mean(SE),[1]; [6],26.66
same,Inhibition %,[1]; [7],74.55%
same,Ulcer index Mean(SE),[1]; [7],11.06
same,Inhibition %,[1]; [8],77.84%
same,Ulcer index Mean(SE),[1]; [8],10.00
same,Inhibition %,[2]; 5 mg/kg per orally,31.55%
same,Ulcer index Mean(SE),[2]; 5 mg/kg per orally,27.5
same,Inhibition %,[2]; 10 mg/kg per orally,41.92%
same,Ulcer index Mean(SE),[2]; 10 mg/kg per orally,23.33
same,Inhibition %,[2]; 15 mg/kg per orally,50.14%
same,Ulcer index Mean(SE),[2]; 15 mg/kg per orally,19.99
same,Inhibition %,[2]; 25 mg/kg per orally,75.45%
same,Ulcer index Mean(SE),"[2]; 25 mg/kg per orally, 25 mg/kg",9.997 and 9.99
same,Inhibition %,[2]; 50 mg/kg per orally,78.22%
same,Ulcer index Mean(SE),[2]; 50 mg/kg per orally,8.75
same,Acidity Total mEg,[3]; 5 mg/kg,45.50 (±1.25) mEg
same,Gastric content,[3]; 5 mg/kg,2.06 (±0.28)
same,Inhibition %,[3]; 5 mg/kg,46.80%
same,Ulcer index Mean(SE),[3]; 5 mg/kg,26.66 (±5.48)
same,pH,[3]; 5 mg/kg,3.25 (±0.17)
same,Acidity Total mEg,[3]; 10 mg/kg,42.90 (±2.37) mEg
same,Gastric content,[3]; 10 mg/kg,3.50 (±0.62)
same,Inhibition %,[3]; 10 mg/kg,59.78%
same,Ulcer index Mean(SE),[3]; 10 mg/kg,21.66 (±3.04)
same,pH,[3]; 10 mg/kg,3.58 (±0.24)
same,Acidity Total mEg,[3]; 15 mg/kg,30.25 (±0.73) mEg
same,Gastric content,[3]; 15 mg/kg,3.62 (±0.61)
same,Inhibition %,[3]; 15 mg/kg,70.07%
same,Ulcer index Mean(SE),[3]; 15 mg/kg,15.00 (±3.33)
same,pH,[3]; 15 mg/kg,4.35 (±0.10)
same,Acidity Total mEg,[3]; 25 mg/kg,30.18 (±0.50) m Eg
same,Gastric content,[3]; 25 mg/kg,2.10 (±0.34)
same,Inhibition %,[3]; 25 mg/kg,75.07%
same,Ulcer index Mean(SE),[3]; 25 mg/kg,12.49 (±3.74)
same,pH,[3]; 25 mg/kg,5.62 (±0.19)
same,Acidity Total mEg,[3]; 50 mg/kg,32.66 (±0.62) m Eg
same,Gastric content,[3]; 50 mg/kg,2.50 (±0.19)
same,Inhibition %,[3]; 50 mg/kg,79.85%
same,Ulcer index Mean(SE),[3]; 50 mg/kg,10.10 (±2.04)
same,pH,[3]; 50 mg/kg,4.62 (±0.10)
